{
  "source": "patent US20060205671A1",
  "about": "(priority 2003, published 2006)",
  "key": {"[1]": {"test_system": "models of LAD occlusion followed by reperfusion", "details": "at onset of reperfusion, continued 2 hours post-reperfusion; cited from earlier work"}, "[2]": {"test_system": "rabbit model of coronary occlusion-reperfusion", "details": "cited from earlier work; for Effect of antagonist on the effects of PolyA (infarct size): given with PolyA, KW-3902 1 mg/kg i.v."}, "[3]": {"test_system": "canine model of LAD occlusion with reperfusion", "details": "cited from earlier work"}, "neutrophils": {"test_system": "neutrophils", "details": "cited from earlier work; for Superoxide generation by neutrophils: neutrophils activated by fMLP, A23187, concanavalin A (adenosine)"}, "[4]": {"test_system": "closed-chest porcine model of regional ischemia and reperfusion", "experiment": "Non-surgical ischemia-reperfusion injury in a closed-chest porcine model (75 min LAD occlusion, reperfusion)", "format": "in vivo", "procedure": "The use of combined adenosine and aprotinin treatment in the cath-lab setting was performed in a closed-chest porcine model of regional ischemia and reperfusion. Farm-bred pigs were initially anesthetized with ketamine, xylazine, acepromazine, diazepam and atropine, followed by maintenance anesthesia with inhaled isoflurane. Through a small femoral artery cut-down, a pigtail catheter was fluoroscopically guided into the left ventricle for injection of non-radioactive microspheres to measure regional myocardial blood flow. A similar cut-down was performed on the contralateral femoral artery, through which was placed a sheath to introduce a 7-Fr guide catheter and angioplasty-type balloon catheters. The 7-Fr guide catheter was inserted into this sheath and fluoroscopically guided to the left main coronary artery. The left main coronary ostium was engaged by the catheter and a guide wire. An angioplasty-type balloon catheter was guided into the LAD just distal to the first diagonal branch. […]\nAfter all instrumentation was complete, the animal was allowed to stabilize for 10 minutes. Baseline hemodynamics (arterial pressure, heart rate) and myocardial blood flow (microspheres) were measured. The microspheres were injected via the pigtail catheter to quantify myocardial blood flow during steady state. […]"}, "[5]": {"test_system": "reperfusion injury in the canine preparation", "details": "24 hours after start of reflow, cited from earlier work"}, "platelets": {"test_system": "platelets", "details": "exogenous adenosine; cited from earlier work"}, "[6]": {"test_system": "ischemically injured hearts (30 minutes of normothermic global ischemia)", "details": "blood cardioplegia supplemented with 400 μM adenosine vs unsupplemented; cited from earlier work"}, "[7]": {"test_system": "canine model of severe coronary occlusion", "details": "10 μM in blood perfusate, first 30 min of reperfusion; after two hours of reperfusion; vs vehicle; cited from earlier work"}, "[8]": {"test_system": "permanent (24 hours) coronary artery occlusion", "details": "100,000 KIU i.v. 30 minutes after occlusion; cited from earlier work"}, "[9]": {"test_system": "canine model of 15 minutes coronary artery occlusion", "details": "30,000 KIU/kg bolus plus 7,000 KIU/kg/hr i.v. prior to occlusion; vs saline control; cited from earlier work"}, "[10]": {"test_system": "rat model of coronary artery occlusion and 24 hours of reperfusion", "details": "cited from earlier work"}, "isolated canine hearts": {"test_system": "isolated canine hearts", "details": "cardioplegia containing 150 KIU aprotinin, cited from earlier work"}, "isolated rat hearts": {"test_system": "isolated rat hearts", "details": "105 KIU/L aprotinin, pretreatment and adjunct to crystalloid cardioplegia; cited from earlier work"}, "rat myocardium slices": {"test_system": "rat myocardium slices", "details": "200 KIU aprotinin, cited from earlier work"}, "[11]": {"details": "infusion for first hour of reperfusion"}, "[12]": {"details": "5,000 KIU/kg before onset of reperfusion, vs vehicle"}, "[13]": {"details": "20,000 KIU/kg before onset of reperfusion"}},
  "note": "Like-named read-outs stand apart in the source and are kept apart here.",
  "data": [
    {"molecule": "1S-[1a,2b,3b,4a(S*)]]-4-[7-[[2-(3-chloro-2-thienyl)-1-methylpropyl]amino]-3H-imidazo[4,5-b]pyridyl-3-yl]cyclopentane carboxamide [AMP-579]", "values": [
      {"measurement": "Infarct size", "setting": "[1]", "value": "reduced"}
    ]},
    {"molecule": "Cn1c(=O)c2[nH]c(-c3ccc(S(=O)(=O)O)cc3)nc2n(C)c1=O", "note": "[8-SPT, 8-p-sulfophenyl theophylline]", "values": [
      {"measurement": "Effect of antagonist on the effects of PolyA (infarct size)", "setting": "[2]", "value": "reversed"}
    ]},
    {"molecule": "CCNC(=O)[C@H]1O[C@@H](n2cnc3c(N)nc(NCCc4ccc(CCC(=O)O)cc4)nc32)[C@H](O)[C@@H]1O", "note": "[CGS-21680, 2-[p-(2-carbonyl-ethyl)-phenylethylamino]-5′-N-ethylcarboxamidoadenosine]", "values": [
      {"measurement": "Infarct size", "setting": "[3]; 60 min occlusion, intracoronary infusion for first hour of reperfusion, saline vehicle 29.8±2.3%", "value": "15.4±2.9 % of the area at risk"},
      {"measurement": "Neutrophil accumulation in the area at risk", "setting": "[3]; [11]", "value": "significantly reduced"},
      {"measurement": "Wall motion", "setting": "[3]; [11]", "value": "no improvement"},
      {"measurement": "Superoxide generation by neutrophils", "setting": "neutrophils", "value": "attenuated"}
    ]},
    {"molecule": "CCCn1c(=O)c2[nH]c(C34CC5CC(CC3C5)C4)nc2n(CCC)c1=O", "note": "[KW-3902, 8-(3-noradamantyl)-1,3-dipropylxanthine]", "values": [
      {"measurement": "Effect of antagonist on the effects of PolyA (infarct size)", "setting": "[2]", "value": "not altered"}
    ]},
    {"molecule": "Nc1ncnc2c1ncn2[C@@H]1O[C@H](CO)[C@@H](O)[C@H]1O", "note": "[adenosine]", "values": [
      {"measurement": "Infarct size", "setting": "[4]; intracoronary adenosine approx 10-20 μM LAD blood concentration for about 30 min at reperfusion, group of three animals, delivery questionable (no vasodilatory effect at 15 min)", "value": "40.4±3.6", "unit": "%"},
      {"measurement": "Infarct size", "setting": "[4]; intracoronary adenosine approx 10-20 μM for about 30 min at reperfusion, the one experiment with delivery confirmed by vasodilation at 15 min reperfusion", "value": 10, "unit": "%"},
      {"measurement": "Regional contractile function", "setting": "[5]; intracoronary 3.75 mg/min at onset of reperfusion", "value": "improved"},
      {"measurement": "Reduction of infarct size", "setting": "[5]; intracoronary into LAD 3.75 mg/min at onset of reperfusion", "value": 75, "unit": "%"},
      {"measurement": "Concentrations inhibiting platelet aggregation", "setting": "platelets", "value": "2 to 40", "unit": "µM"},
      {"measurement": "Superoxide generation by neutrophils", "setting": "neutrophils", "value": "inhibited"},
      {"measurement": "Post-ischemic systolic dysfunction", "setting": "[6]", "value": "reversed"},
      {"measurement": "Infarct size as percent of AAR (An/ARR)", "setting": "[7]", "value": "significantly lower"},
      {"measurement": "Infarct size as percent of LV (An/LV)", "setting": "[7]", "value": "significantly lower"}
    ]},
    {"molecule": "aprotinin", "values": [
      {"measurement": "Histologically apparent infarct size", "setting": "[8]", "value": "decreased"},
      {"measurement": "Recovery of systolic function in the area at risk (systolic shortening)", "setting": "[9]", "value": "significantly greater recovery"},
      {"measurement": "Infarct size estimated from myocardial creatine kinase loss", "setting": "[10]; [12]", "value": "significantly reduced"},
      {"measurement": "Neutrophil accumulation (myocardial myeloperoxidase)", "setting": "[10]; [12]", "value": "significantly reduced"},
      {"measurement": "Appearance of apoptosis in the area at risk myocardium", "setting": "[10]; 5,000 or 20,000 KIU/kg before onset of reperfusion", "value": "attenuated"},
      {"measurement": "Infarct size estimated from myocardial creatine kinase loss", "setting": "[10]; [13]", "value": "further significantly reduced"},
      {"measurement": "Neutrophil accumulation (myocardial myeloperoxidase)", "setting": "[10]; [13]", "value": "significantly reduced"},
      {"measurement": "Lysosomal enzyme N-acetyl-β-D-glucosaminidase in coronary sinus blood during reperfusion", "setting": "isolated canine hearts", "value": "significantly lower"},
      {"measurement": "Recovery of systolic function (end-systolic pressure-volume relationship)", "setting": "isolated canine hearts", "value": "significantly less recovery"},
      {"measurement": "Post-ischemic non-specific creatine kinase (CK) activity or CK-MB isoenzyme activity", "setting": "isolated canine hearts; vs control group", "value": "no difference"},
      {"measurement": "Recovery of post-ischemic ATP after reperfusion", "setting": "isolated canine hearts; vs control group", "value": "significantly greater"},
      {"measurement": "Myocardial protection", "setting": "isolated rat hearts", "value": "significant protection"},
      {"measurement": "ATP content and protein synthesis of myocardium slices", "setting": "rat myocardium slices; 4° C., up to 6 hours of storage", "value": "attenuated the decline"},
      {"measurement": "TNFα generation and uptake by myocardial tissue slices", "setting": "rat myocardium slices", "value": "suppressed"}
    ]},
    {"molecule": "polyadenylic acid", "values": [
      {"measurement": "Reduction of infarct size", "setting": "[2]; nearly sub-vasodilator dose at reperfusion", "value": 50, "unit": "%"},
      {"measurement": "PMNs superoxide generation and adherence to coronary endothelium", "setting": "neutrophils", "value": "significantly inhibited"}
    ]}
  ]
}
